According to BindingDB's records for doi:10.1016/j.bmcl.2014.09.001 (University of Pittsburgh, 2014):

What was measured:
[1] = biological target: T1, Signal transducer and activator of transcription 1-alpha/beta (Homo sapiens, UniProt P42224); test: Inhibition of IFNgamma-induced STAT1 phosphorylation in human Cal33 cells by Western blot analysis
T1 sequence (P42224 whole entry): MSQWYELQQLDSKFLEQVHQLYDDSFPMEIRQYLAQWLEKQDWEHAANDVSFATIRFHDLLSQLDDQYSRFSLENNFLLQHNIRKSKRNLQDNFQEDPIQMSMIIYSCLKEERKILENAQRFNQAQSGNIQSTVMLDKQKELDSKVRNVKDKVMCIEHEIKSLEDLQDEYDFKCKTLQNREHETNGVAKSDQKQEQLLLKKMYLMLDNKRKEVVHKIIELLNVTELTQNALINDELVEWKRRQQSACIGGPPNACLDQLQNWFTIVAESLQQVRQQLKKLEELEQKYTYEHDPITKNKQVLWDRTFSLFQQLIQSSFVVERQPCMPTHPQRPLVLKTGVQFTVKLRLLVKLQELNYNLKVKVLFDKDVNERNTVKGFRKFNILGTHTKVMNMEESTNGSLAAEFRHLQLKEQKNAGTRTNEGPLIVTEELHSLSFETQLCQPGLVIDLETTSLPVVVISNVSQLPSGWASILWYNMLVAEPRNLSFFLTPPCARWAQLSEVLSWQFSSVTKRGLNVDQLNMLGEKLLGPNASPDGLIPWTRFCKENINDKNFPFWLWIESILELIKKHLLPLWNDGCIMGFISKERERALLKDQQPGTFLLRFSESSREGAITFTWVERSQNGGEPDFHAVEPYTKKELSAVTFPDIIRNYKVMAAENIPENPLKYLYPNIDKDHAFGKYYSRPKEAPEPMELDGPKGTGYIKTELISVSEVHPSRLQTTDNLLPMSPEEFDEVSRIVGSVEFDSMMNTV

[2] = Inhibition of IL-6-induced STAT3 phosphorylation in human Cal33 cells assessed as nuclear translocation by Western blot analysis

Structure (SMILES)	IC50 [1]	IC50 [2]
Cc1nc(NCCc2c[nH]c3ccccc23)nc2ccccc12	> 30 µM	> 30 µM
C=CCc1c(C)[nH]c(Nc2nc(C)c3cc(C)cc(C)c3n2)nc1=O	> 50 µM	
Cc1nc(NCCN2CCOCC2)nc2ccccc12	> 30 µM	> 30 µM
COc1ccc2nc(Nc3nc(=O)cc(C)[nH]3)nc(C)c2c1	> 50 µM	34.9 µM
Cc1cc(=O)nc(Nc2nc(C)c3cc4c(cc3n2)OCO4)[nH]1	> 50 µM	> 50 µM
CCOc1ccc2nc(Nc3nc(=O)cc(C)[nH]3)nc(C)c2c1	> 50 µM	
CC1=CC(C)(C)N=C(Nc2nc(C)c3cc(C)cc(C)c3n2)N1 [US9211296, Table 7, Compd: 9]	5.9 µM	
Cc1cc(C)c2nc(Nc3nc(=O)cc(-c4ccccc4)[nH]3)nc(C)c2c1	> 50 µM	
Cc1[nH]c(Nc2nc(C)c3cc4c(cc3n2)OCO4)nc(=O)c1Cc1ccccc1	> 50 µM	> 50 µM
CCOc1ccc2nc(Nc3nc(=O)c(C)c(C)[nH]3)nc(C)c2c1	> 50 µM	
CCOc1ccc2nc(NC3=NC(C)=CC(C)(C)N3)nc(C)c2c1	> 50 µM	
Cc1nc(Nc2ccccn2)nc2ccccc12	> 30 µM	
Cc1nc(NCc2cccc3ccccc23)nc2ccccc12	> 30 µM	
CCOc1ccc2c(C)nc(NC3=NC(C)=CC(C)(C)N3)nc2c1 [DNDI1417388]	> 50 µM	
COc1ccc2c(C)nc(Nc3nc(C)cc(O)n3)nc2c1	> 50 µM	
COc1ccc2nc(Nc3nc(=O)c(Cc4ccccc4)c(C)[nH]3)nc(C)c2c1	50 µM	
Cc1nc(NCc2ccccc2)nc2ccccc12	> 30 µM	> 30 µM
CCOc1ccc2nc(Nc3nc(=O)cc(-c4ccccc4)[nH]3)nc(C)c2c1	> 50 µM	
Cc1nc(NC2CCCCC2)nc2ccccc12	> 30 µM	
Cc1ccc2c(C)nc(Nc3nc(=O)c(C)c(C)[nH]3)nc2c1	35.2 µM	
Cc1cc(C)c2nc(Nc3nc(C)c(C)c(O)n3)nc(C)c2c1	> 50 µM	6.4 µM
Cc1ccc(CNc2nc(C)c3ccccc3n2)o1	> 30 µM	
Cc1nc(Nc2ccccc2)nc2ccccc12	> 30 µM	
CC1=CC(C)(C)N=C(Nc2nc(C)c3cc(C)ccc3n2)N1	> 50 µM	
Cc1nc(Nc2nc(=O)cc(-c3ccccc3)[nH]2)nc2cc3c(cc12)OCO3	> 50 µM	13 µM
Cc1nc(NCc2ccc3c(c2)OCO3)nc2ccccc12	> 30 µM	> 30 µM
Cc1cc(=O)nc(Nc2nc(C)c3cc(C)c(C)cc3n2)[nH]1	> 50 µM	
Cc1ccc2c(C)nc(Nc3nc(=O)cc(C)[nH]3)nc2c1	39.7 µM	
Cc1cc2nc(Nc3nc(=O)c(C)c(C)[nH]3)nc(C)c2cc1C	> 50 µM	10.4 µM
Cc1[nH]c(Nc2nc(C)c3cc4c(cc3n2)OCO4)nc(=O)c1C	> 50 µM	> 50 µM
